In US12344614B2, “Benzodiazepine derivatives as GABA a GAMMA1 PAM” (Hoffmann-La Roche Inc., priority 2021, dated 2025):
Where two headings read alike, the source gives them in different places.

Experiments:
[1] = target: human GABAA α5β2γ1 receptor (Homo sapiens (Human), UniProt P31644+Q8N1C3); assay: Radioligand binding assay, competition for [3H]RO7239181, membranes from HEK293F cells
Description: The affinity of compounds at GABAA γ1 subunit-containing receptors was measured by competition for [^3H]RO7239181 (67.3 Ci/mmol; Roche) binding to membranes from HEK293F cells (ThermoFisher R79007) expressing human (transiently transfected) receptors of composition α5β2γ1, α2β2γ1, α1β2γ1. For better protein expression of the α2 subunit-containing receptors, the 28 amino acid long signal peptide (Met1 to Ala28) of the human GABAA α2 subunit was substituted by the 31 amino acid long signal peptide (Met1 to Ser31) of human GABAA α5 subunit.
(§1) Harvested pellets from HEK293F cells expressing the different GABAA receptor subtypes were resuspended in Mannitol Buffer pH 7.2-7.4 (Mannitol 0.29M, Triethylamine 10 mM, Acetic acid 10 mM, EDTA 1 mM plus protease inhibitors (20 tablets Complete, Roche Diagnostics Cat. No. 05 056 489 001 per liter)), washed two times and then resuspended at 1:10 to 1:15 dilution in the same buffer. Cell disruption was performed by stirring the suspension in a Parr vessel #4637 at 435 psi for 15 minutes, and then the suspensions were centrifuged at 1000×g for 15 minutes at 4° C. (Beckman Avanti J-HC; rotor JS-4.2). The supernatant (S1) was transferred in a 21 Schott flask and the pellet (P1) was resuspended with Mannitol Buffer up to 175 ml. The resuspended pellet was transferred into a 250 ml Corning centrifugal beaker and centrifuged at 1500×g for 10 minutes at 4° C. (Beckman Avanti J-HC; rotor JS-4.2). The supernatant (S1) was then transferred in the 21 Schott flask and the pellet was discarded. The supernatants (S1) were centrifuged in 500 ml Beckman polypropylene centrifugal beaker at 15′000×g for 30 minutes at 4° C. (Beckman Avanti J-20 XP; rotor JLA-10.500). The pellet (P2) was resuspended with Mannitol Buffer 1:1 and frozen at −80° C. The supernatant (S2) was centrifuged in 100 ml Beckman polypropylene centrifugal tubes at 48000×g for 50 minutes at 4° C. (Beckman Avanti J-20 XP; rotor JA-18). The supernatant (S3) was discarded and the pellet (P3) was resuspended with 1:1 Mannitol Buffer. The P2 and P3 protein concentration was determined with the BIORAD Standard assay method with bovine serum albumin as standard and measured on the NANO-Drop 1000. The membrane suspension was aliquots (500 μl per tube) and stored at −80° C. until required.
(§2) Membrane homogenates were resuspended and polytronised (Polytron PT1200E Kinematica AG) in Potassium Phosphate 10 mM, KCl 100 mM binding buffer at pH 7.4 to a final assay concentration determined with a previous experiment.
Radioligand binding assays were carried out in a volume of 200 μL (96-well plates) which contained 100 μL of cell membranes, [^3H]RO7239181 at a concentration of 1.5 nM (α5β2γ1) or 20-30 nM (α1β2γ1, α2β2γ1) and the test compound in the range of [0.3-10000]×10^−9 M. Nonspecific binding was defined by 10×10^−6 (α5β2γ1) and 30×10^−6 M RO7239181 and typically represented less than 5% (α5β2γ1) and less than 20% (α1β2γ1, α2β2γ1) of the total binding. Assays were incubated to equilibrium for 1 hour at 4° C. and then, membranes were filtered onto unifilter (96-well white microplate with bonded GF/C filters preincubated 20-50 minutes in 0.3% Polyethylenimine) with a Filtermate 196 harvester (Packard BioScience) and washed 4 times with cold Potassium Phosphate 10 mM pH 7.4, KCl 100 mM binding buffer. After anhydrousing, filter-retained radioactivity was detected by liquid scintillation counting. Ki values were calculated using Excel-Fit (Microsoft) and are the means of two determinations.
Representative test results, obtained by the above described assay measuring binding affinity to HEK293 cells expressing human (h) receptors, are shown in the Table 1.

[2] = target: human GABAA α2β2γ1 receptor (Homo sapiens (Human), UniProt P47869+Q8N1C3); assay: as above
Description: The affinity of compounds at GABAA γ1 subunit-containing receptors was measured by competition for [^3H]RO7239181 (67.3 Ci/mmol; Roche) binding to membranes from HEK293F cells (ThermoFisher R79007) expressing human (transiently transfected) receptors of composition α5β2γ1, α2β2γ1, α1β2γ1.
as §1, §2
Assays were incubated to equilibrium for 1 hour at 4° C. and then, membranes were filtered onto unifilter (96-well white microplate with bonded GF/C filters preincubated 20-50 minutes in 0.3% Polyethylenimine) with a Filtermate 196 harvester (Packard BioScience) and washed 4 times with cold Potassium Phosphate 10 mM pH 7.4, KCl 100 mM binding buffer. After anhydrousing, filter-retained radioactivity was detected by liquid scintillation counting. Ki values were calculated using Excel-Fit (Microsoft) and are the means of two determinations.

[3] = target: human GABAA α1β3γ2 receptor (Homo sapiens (Human), UniProt P14867+P18507); assay: Radioligand binding assay, competition for [3H]Flumazenil, HEK293F cells; conditions: for γ2/γ1 Selectivity Ratio: Ki α1β3γ2 (nM)/Ki α2β2γ1 (nM); for LogSel: Log[Ki α1β3γ2 (nM)/Ki α2β2γ1 (nM)]
Description: The affinity of compounds at GABAA γ2 subunit-containing receptors was measured by competition for [^3H]Flumazenil (81.1 Ci/mmol; Roche) binding to HEK293F cells expressing human (transiently transfected) receptors of composition α1β3γ2.
Harvested pellets from HEK293F cells expressing the different GABAA γ2 receptor subtypes were resuspended in Mannitol Buffer pH 7.2-7.4 and processed as described above for the cells expressing the GABAA γ1 subunit-containing receptors.
Assays were incubated to equilibrium for 1 hour at 4° C. and harvested onto GF/C uni-filters (Packard) by filtration using a Packard harvester and washing with ice-cold wash buffer (50 mM Tris; pH 7.5). After anhydrousing, filter-retained radioactivity was detected by liquid scintillation counting. Ki values were calculated using Excel-Fit (Microsoft) and are the means of two determinations.

[4] = read-out: Ki h-GABAA α2β2γ1, [3H]RO7239181 20-30 nM, HEK293F membranes, 1 hour at 4° C., mean of two determinations

| Compound | Ki [1] [nM] | Ki [2] [nM] | Ki [2, 4] [nM] | Ki [3] [nM] | γ2/γ1 Selectivity Ratio [3] | LogSel [3] | Ki ([3]; read-out: Ki h-GABAA α1β3γ2, [3H]Flumazenil 1 nM, HEK293F membranes, 1 hour at 4° C., mean of two determinations) [nM] |
| --- | --- | --- | --- | --- | --- | --- | --- |
| Cc1nc2n(n1)-c1ccc(C(F)(F)F)c(Cl)c1C(c1nc(O)ccc1F)=N[C@H]2C [Example 25, 6-[(4S)-7-chloro-2,4-dimethyl-8-(trifluoromethyl)-4H-[1,2,4]triazolo[1,5-a][1,4]benzodiazepin-6-yl]-5-fluoro-pyridin-2-ol] | 2.32 | 10.9 | 10.9 | 10600 | 977.2 | 2.99 | – |
| Cc1cnc2n1-c1ccc(C(F)(F)F)c(Cl)c1C(c1nc(O)ccc1Cl)=N[C@H]2C [Example 26, 5-chloro-6-[(4S)-7-chloro-1,4-dimethyl-8-(trifluoromethyl)-4H-imidazo[1,2-a][1,4]benzodiazepin-6-yl]pyridin-2-ol] | 3.25 | 7.88 | 7.88 | 6730 | 853.7 | 2.93 | – |
| Cc1nnc2n1-c1ccc(C(F)(F)F)c(Cl)c1C(c1nc(O)ccc1Cl)=N[C@H]2C [Example 22, 5-chloro-6-[(4S)-7-chloro-1,4-dimethyl-8-(trifluoromethyl)-4H-[1,2,4]triazolo[4,3-a][1,4]benzodiazepin-6-yl]pyridin-2-ol] | 20.9 | 13.7 | 13.7 | 9690 | 704.8 | 2.85 | – |
| Cc1nc2n(n1)-c1ccc(C(F)(F)F)c(Cl)c1C(c1nc(O)ccc1Cl)=N[C@H]2C [Example 29, 5-chloro-6-[(4S)-7-chloro-2,4-dimethyl-8-(trifluoromethyl)-4H-[1,2,4]triazolo[1,5-a][1,4]benzodiazepin-6-yl]pyridin-2-ol] | 3.63 | 7.7 | 7.7 | 12000 | 1557.5 | 3.19 | – |
| CN1C(=O)CN=C(c2cc(O)ccc2F)c2c1ccc(Cl)c2Cl [Example 1, 6,7-dichloro-5-(2-fluoro-5-hydroxy-phenyl)-1-methyl-3H-1,4-benzodiazepin-2-one] | 0.34 | 2.27 | 2.27 | 28.7 | – | 1.1 | 28.7 |
| C[C@@H]1N=C(c2nc(O)ccc2F)c2c(ccc(C(F)(F)F)c2Cl)-n2c1nc1c2CCC1 [Example 24, 6-[(10S)-6-chloro-10-methyl-5-(trifluoromethyl)-1,9,12-triazatetracyclo[9.6.0.02,7.013,17]heptadeca-2(7),3,5,8,11,13(17)-hexaen-8-yl]-5-fluoro-pyridin-2-ol] | 8.6 | 6.61 | 6.61 | 4190 | 634.3 | 2.80 | – |
| O=c1ccn2c(n1)CN=C(c1cc(O)ccc1F)c1c-2ccc(C(F)(F)F)c1Cl [Example 11, 8-chloro-7-(2-fluoro-5-hydroxy-phenyl)-9-(trifluoromethyl)-5H-pyrimido[1,2-a][1,4]benzodiazepin-3-one] | 1.54 | 1.88 | 1.88 | 359 | 191.3 | 2.28 | – |
| Cc1nnc2n1-c1ccc(Cl)c(Cl)c1C(c1c(F)ccc(O)c1F)=NC2 [Example 13, 3-(7,8-dichloro-1-methyl-4H-[1,2,4]triazolo[4,3-a][1,4]benzodiazepin-6-yl)-2,4-difluoro-phenol] | 0.4 | 3.85 | 3.85 | 72.6 | 18.8 | 1.28 | – |
| C[C@@H]1N=C(c2nc(O)ccc2F)c2c(ccc(C(F)(F)F)c2Cl)-n2cc(C(=O)N3CCC3)nc21 [Example 30, azetidin-1-yl-[(4S)-7-chloro-6-(3-fluoro-6-hydroxy-2-pyridyl)-4-methyl-8-(trifluoromethyl)-4H-imidazo[1,2-a][1,4]benzodiazepin-2-yl]methanone] | 8.77 | 46.3 | 46.3 | 13000 | 280.8 | 2.45 | – |
| C[C@@H]1N=C(c2cc(O)ccc2F)c2c(ccc(Cl)c2Cl)-n2ccc(=O)nc21 [Example 5, (5S)-8,9-dichloro-7-(2-fluoro-5-hydroxy-phenyl)-5-methyl-5H-pyrimido[1,2-a][1,4]benzodiazepin-3-one] | 0.39 | 1.4 | 1.4 | 255 | 182.4 | 2.26 | – |
| CN1C(=O)CN=C(c2c(F)ccc(O)c2F)c2c1ccc(Cl)c2Cl [Example 12, 6,7-dichloro-5-(2,6-difluoro-3-hydroxy-phenyl)-1-methyl-3H-1,4-benzodiazepin-2-one] | 0.46 | 2.12 | 2.12 | 371 | 175.4 | 2.24 | – |
| CN1C(=O)CN=C(c2cc(O)ccc2F)c2c1ccc(C(F)(F)F)c2Cl [Example 8, 6-chloro-5-(2-fluoro-5-hydroxy-phenyl)-1-methyl-7-(trifluoromethyl)-3H-1,4-benzodiazepin-2-one] | 0.44 | 2.35 | 2.35 | 80.9 | 34.4 | 1.54 | – |
| Cc1nnc2n1-c1ccc(C(F)(F)F)c(Cl)c1C(c1cc(O)ccc1F)=NC2 [Example 9, 3-[7-chloro-1-methyl-8-(trifluoromethyl)-4H-[1,2,4]triazolo[4,3-a][1,4]benzodiazepin-6-yl]-4-fluoro-phenol] | 0.86 | 3.25 | 3.25 | 106 | 32.6 | 1.51 | – |
| O=c1ccn2c(n1)CN=C(c1c(F)ccc(O)c1F)c1c-2ccc(Cl)c1Cl [Example 14, 8,9-dichloro-7-(2,6-difluoro-3-hydroxy-phenyl)-5H-pyrimido[1,2-a][1,4]benzodiazepin-3-one] | 0.85 | 4.67 | 4.67 | 74.6 | 16.0 | 1.20 | – |
